Laboratory results from patent US20120220603A1, “SUBSTITUTED HETEROCYCLIC DERIVATIVES FOR THE TREATMENT OF PAIN AND EPILEPSY” (ZALICUS PHARMACEUTICALS LTD., priority 2009, published 2012).

What was measured:
human Nav1.5 channel = target: T1, human Nav1.5 channel (Homo sapiens, UniProt Q14524); assay: NaV1.5 sodium channel screening assay, PatchXpress automated electrophysiology, cardiac action potential waveform 1 Hz; assay type: cell-based; settings: cardiac action potential waveform at 1 Hz; HEK cells; read-out: HNAv 1.5 Cardiac AP 1 Hz IC50
T1 construct: expressed in transfected cells; host or cells: HEK cells
T1 sequence (Q14524 whole entry): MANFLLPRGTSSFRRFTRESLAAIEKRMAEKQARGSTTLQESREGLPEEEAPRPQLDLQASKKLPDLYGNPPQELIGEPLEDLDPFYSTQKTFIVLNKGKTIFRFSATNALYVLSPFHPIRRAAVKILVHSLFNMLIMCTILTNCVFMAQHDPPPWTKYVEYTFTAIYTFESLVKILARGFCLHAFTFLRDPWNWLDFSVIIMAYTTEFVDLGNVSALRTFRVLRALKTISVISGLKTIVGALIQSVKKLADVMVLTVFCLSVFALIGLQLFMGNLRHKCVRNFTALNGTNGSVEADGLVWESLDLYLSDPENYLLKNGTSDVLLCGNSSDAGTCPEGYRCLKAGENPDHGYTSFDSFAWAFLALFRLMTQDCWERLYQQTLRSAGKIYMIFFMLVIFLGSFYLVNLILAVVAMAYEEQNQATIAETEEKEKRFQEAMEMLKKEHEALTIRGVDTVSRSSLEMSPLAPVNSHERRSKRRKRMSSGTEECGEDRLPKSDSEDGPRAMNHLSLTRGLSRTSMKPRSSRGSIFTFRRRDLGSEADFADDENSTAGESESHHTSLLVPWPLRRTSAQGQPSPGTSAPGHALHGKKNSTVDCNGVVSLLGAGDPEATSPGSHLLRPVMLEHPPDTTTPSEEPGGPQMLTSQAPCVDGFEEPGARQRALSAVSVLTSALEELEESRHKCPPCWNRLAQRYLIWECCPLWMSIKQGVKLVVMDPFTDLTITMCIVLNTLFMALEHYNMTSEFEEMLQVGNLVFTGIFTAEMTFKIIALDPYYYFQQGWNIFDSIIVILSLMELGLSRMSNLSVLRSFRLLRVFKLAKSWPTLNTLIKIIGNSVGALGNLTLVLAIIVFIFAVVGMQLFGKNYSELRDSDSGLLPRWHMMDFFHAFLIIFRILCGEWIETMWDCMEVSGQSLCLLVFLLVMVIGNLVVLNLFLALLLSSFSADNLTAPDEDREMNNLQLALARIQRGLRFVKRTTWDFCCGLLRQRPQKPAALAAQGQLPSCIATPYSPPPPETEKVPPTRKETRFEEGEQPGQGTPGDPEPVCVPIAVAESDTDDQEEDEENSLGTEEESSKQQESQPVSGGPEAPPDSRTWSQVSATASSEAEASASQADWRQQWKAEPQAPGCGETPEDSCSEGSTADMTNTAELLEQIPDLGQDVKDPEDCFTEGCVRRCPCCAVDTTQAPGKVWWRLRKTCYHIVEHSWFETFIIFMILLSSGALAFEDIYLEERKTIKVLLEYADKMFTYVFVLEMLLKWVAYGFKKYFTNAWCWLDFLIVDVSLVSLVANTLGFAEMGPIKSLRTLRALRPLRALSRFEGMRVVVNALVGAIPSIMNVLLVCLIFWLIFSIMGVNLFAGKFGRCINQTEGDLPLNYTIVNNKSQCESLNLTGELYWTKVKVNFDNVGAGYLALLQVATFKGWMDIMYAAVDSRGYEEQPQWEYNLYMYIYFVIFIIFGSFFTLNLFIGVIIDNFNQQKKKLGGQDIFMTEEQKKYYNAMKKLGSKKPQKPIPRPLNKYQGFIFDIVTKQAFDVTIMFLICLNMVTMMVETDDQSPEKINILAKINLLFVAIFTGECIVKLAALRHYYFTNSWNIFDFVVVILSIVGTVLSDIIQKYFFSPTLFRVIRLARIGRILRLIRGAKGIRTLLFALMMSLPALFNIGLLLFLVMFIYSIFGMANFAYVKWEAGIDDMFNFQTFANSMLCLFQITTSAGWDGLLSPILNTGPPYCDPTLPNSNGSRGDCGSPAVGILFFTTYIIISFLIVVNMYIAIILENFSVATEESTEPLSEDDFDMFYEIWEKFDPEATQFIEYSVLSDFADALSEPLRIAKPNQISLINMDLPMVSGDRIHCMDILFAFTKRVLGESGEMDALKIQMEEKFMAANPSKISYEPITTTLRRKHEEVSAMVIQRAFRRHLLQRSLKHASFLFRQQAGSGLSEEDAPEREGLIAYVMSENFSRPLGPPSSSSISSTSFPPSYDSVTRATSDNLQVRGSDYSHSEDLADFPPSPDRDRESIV
Method: Inhibition of the TTX-resistant NaV1.5 sodium channel, a key cardiac ion channel, can have profound effects on the duration and amplitude of the cardiac action potential and can result in arrhythmias and other heart malfunctions. To assess the potential cardiac liability of compounds at an early stage in the drug discovery process, a NaV1.5 sodium channel screening assay is performed on Molecular Device's PatchXpress™ automated electrophysiology platform. Under voltage-calmp conditions, NaV1.5 currents were recorded from HEK cells expressing the human Nav1.5 channel in the absence and presence of increasing concentrations of the test compound to obtain an IC50 value. The external recording solution contained (in mM): 90 TEACl, 50 NaCl, 1.8 CaCl, 1 MgCl2, 10 HEPES, 10 glucose, adjusted to pH 7.4 with TEA-OH and to 300 mOsm with sucrose (if necessary), while the internal patch pipette solution contained (in mM): 129 CsF, 2 MgCl2, 11 EGTA, 10 HEPES, 3 Na2ATP adjusted to pH 7.2 with CsOH and to 290 mOsm with sucrose (if necessary). NaV1.5 channel currents were evoked using a cardiac action potential waveform at 1 Hz, digitized at 31.25 kHz and low-pass filtered at 12 kHz.

[1] = Rat Early Pharmacokinetic (EPK) study; assay type: in vivo; settings: PO, 3 mg/kg, formulation PG (propylene glycol)
Method: Male Sprague-Dawley rats were dosed via oral (PO) gavage in the detailed formulation. Blood samples were collected from the animals at 6 timepoints out to 4 hours post-dose. Pharmacokinetic analysis was performed on the LC-MS/MS measured concentrations for each timepoint of each compound.

[2] = system: Rat SNL tactile allodynia; assay: L5/L6 spinal nerve ligation (SNL) Chung pain model, tactile allodynia (von Frey); assay type: in vivo
Description: The Spinal Nerve Ligation is an animal model representing peripheral nerve injury generating a neuropathic pain syndrome. In this model experimental animals develop the clinical symptoms of tactile allodynia and hyperalgesia. L5/L6 Spinal nerve ligation (SNL) injury was induced using the procedure of Kim and Chung (Kim et al., Pain 50:355-363 (1992)) in male Sprague-Dawley rats (Harlan; Indianapolis, Ind.) weighing 200 to 250 grams.
Anaesthesia was induced with 2% isofluorane in O2 at 2 L/min and maintained with 0.5% isofluorane in O2. Rats were then shaved and aseptically prepared for surgeries. A 2 cm paraspinal incision was made at the level of L4-S2. L4/L5 was exposed by removing the transverse process above the nerves with a small rongeur. The L5 spinal nerve is the larger of the two visible nerves below the transverse process and lies closest to the spine. The L6 spinal nerve is located beneath the corner of the slope bone. A home-made glass Chung rod was used to hook L5 or L6 and a pre-made slip knot of 4.0 silk suture was placed on the tip of the rod just above the nerve and pulled underneath to allow for the tight ligation. The L5 and L6 spinal nerves were tightly ligated distal to the dorsal root ganglion. The incision was closed, and the animals were allowed to recover for 5 days.
Sham control rats underwent the same operation and handling as the experimental animals, but without SNL.
Prior to initiating drug delivery, baseline behavioural testing data is obtained. At selected times after infusion of the Test or Control Article behavioural data can then be collected again.
The assessment of tactile allodynia consisted of measuring the withdrawal threshold of the paw ipsilateral to the site of nerve injury in response to probing with a series of calibrated von Frey filaments (innocuous stimuli). Animals were acclimated to the suspended wire-mesh cages for 30 min before testing. Each von Frey filament was applied perpendicularly to the plantar surface of the ligated paw of rats for 5 sec. A positive response was indicated by a sharp withdrawal of the paw. For rats, the first testing filament is 4.31. Measurements were taken before and after administration of test articles. […] The protocol was repeated until three changes in behaviour were determined (“up and down” method) (Chaplan et al., J. Neurosci. Methods 53:55-63 (1994)). The 50% paw withdrawal threshold was determined as (10^[Xf+kδ])/10,000, where Xf=the value of the last von Frey filament employed, k=Dixon value for the positive/negative pattern, and S=the logarithmic difference between stimuli. The cut-off values for rats were no less than 0.2 g and no higher than 15 g (5.18 filament); for mice no less than 0.03 g and no higher than 2.34 g (4.56 filament). A significant drop of the paw withdrawal threshold compared to the pre-treatment baseline is considered tactile allodynia. […]

mice on rotarod = assay: Mouse rotarod assay (minimal muscular or neurological impairment); assay type: in vivo
Method: To assess a compound's undesirable side effects (toxicity), animals were monitored for overt signs of impaired neurological or muscular function. In mice, the rotarod procedure (Dunham and Miya, J. Am. Pharmacol. Assoc. 46:208-209 (1957)) is used to disclose minimal muscular or neurological impairment (MMI). When a mouse is placed on a rod that rotates at a speed of 6 rpm, the animal can maintain its equilibrium for long periods of time. The animal is considered toxic if it falls off this rotating rod three times during a 1-min period.

[3] = system: Lamina I/II spinal cord neurons; assay: Lamina assay: current-clamp recordings on lamina I/II spinal cord neurons; assay type: cell-based, rat; settings: Lamina I and II, tonic firing neurons, current-clamp
Description: Male Wistar rats (P6 to P9 for voltage-clamp and P15 to P18 for current-clamp recordings) were anaesthetized through intraperitoneal injection of Inactin (Sigma). The spinal cord was then rapidly dissected out and placed in an ice-cold solution protective sucrose solution containing (in mM): 50 sucrose, 92 NaCl, 15 D-Glucose, 26 NaHCO3, 5 KCl, 1.25 NaH2PO4, 0.5 CaCl2, 7 MgSO4, 1 kynurenic acid, and bubbled with 5% CO2/95% O2. The meninges, dura, and dorsal and ventral roots were then removed from the lumbar region of the spinal cord under a dissecting microscope. The “cleaned” lumbar region of the spinal cord was glued to the vibratome stage and immediately immersed in ice cold, bubbled, sucrose solution. For current-clamp recordings, 300 to 350 μm parasagittal slices were cut to preserve the dendritic arbour of lamina I neurons, while 350 to 400 μm transverse slices were prepared for voltage-clamped […] channel recordings. Slices were allowed to recover for 1 hour at 35° C. in Ringer solution containing (in mM): 125 NaCl, 20 D-Glucose, 26 NaHCO3, 3 KCl, 1.25 NaH2PO4, 2 CaCl2, 1 MgCl2, 1 kynurenic acid, 0.1 picrotoxin, bubbled with 5% CO2/95% O2. The slice recovery chamber was then returned to room temperature (20 to 22° C.) and all recordings were performed at this temperature.
Neurons were visualized using IR-DIC optics (Zeiss Axioskop 2 FS plus, Gottingen, Germany), and neurons from lamina I and the outer layer of lamina II were selected based on their location relative to the substantia gelatinosa layer. Neurons were patch-clamped using borosilicate glass patch pipettes with resistances of 3 to 6 MΩ. Current-clamp recordings of lamina I/II neurons in the intact slice, the external recording solution was the above Ringer solution, while the internal patch pipette solution contained (in mM): 140 KGluconate, 4 NaCl, 10 HEPES, 1 EGTA, 0.5 MgCl2, 4 MgATP, 0.5 Na2GTP, adjusted to pH 7.2 with 5 M KOH and to 290 mOsm with D-Mannitol (if necessary). Only tonic firing neurons were selected for current-clamp experiments, while phasic, delayed onset and single spike neurons were discarded (22). Recordings were digitized at 50 kHz and low-pass filtered at 2.4 kHz.

[4] = system: seizures induced by 6 Hz corneal stimulation in CF1 mice; assay: 6 Hz psychomotor seizure model of partial epilepsy; assay type: in vivo, mouse; design: Epilepsy 6 Hz (% protected): concentration or dose not given beside the values; settings: 32 mA
Method: Compounds were evaluated for the protection against seizures induced by a 6 Hz, 0.2 ms rectangular pulse width of 3 s duration, at a stimulus intensity of 32 mA (CC97) applied to the cornea of male CF1 mice (20-30 g) according to procedures described by Barton et al, “Pharmacological Characterization of the 6 Hz Psychomotor Seizure Model of Partial Epilepsy,” Epilepsy Res. 47(3):217-27 (2001). Seizures are characterised by the expression of one or more of the following behaviours: stun, forelimb clonus, twitching of the vibrissae and Straub-tail immediately following electrical stimulation.

Dose Normalized AUC [1]	Dose Normalized Cmax [1]	Tmax ([1]; male, Sprague-Dawley, blood)	SMILES	IC50 (human Nav1.5 channel)	Rat SNL Tactile Allodynia (% Antiallodynia) ([2]; 1 hour)	Rat SNL Tactile Allodynia (% Antiallodynia) ([2]; 2 hours)	Rat SNL Tactile Allodynia (% Antiallodynia) ([2]; 4 hours)	% Impaired (mice on rotarod; 0.25 hr)	% Impaired (mice on rotarod; 0.5 hr)	% Impaired (mice on rotarod; 1 hr)	% Impaired (mice on rotarod; 2 hr)	% Impaired (mice on rotarod; 4 hr)	% Spike Change (Mean; % change from control) [3]	Epilepsy 6 Hz (% protected) ([4]; 0.25 hr)	Epilepsy 6 Hz (% protected) ([4]; 0.5 hr)	Epilepsy 6 Hz (% protected) ([4]; 1 hr)	Epilepsy 6 Hz (% protected) ([4]; 2 hr)	Epilepsy 6 Hz (% protected) ([4]; 4 hr)
108 nM·h	48 nM	1.8 h	O=C(CN1CCNCC1)Nc1cc(C(F)(F)F)cc(C(F)(F)F)c1 [Compound 5, N-(3,5-bis(trifluoromethyl)phenyl)-2-(piperazin-1-yl)acetamide]	40 µM														
			O=C(CC1CCNCC1)Nc1cc(C(F)(F)F)cc(C(F)(F)F)c1 [Compound 19, N-(3,5-bis(trifluoromethyl)phenyl)-2-(piperidin-4-yl)acetamide]		47%	39%	32%	0%	75%	100%	100%	100%	−30.3%	100%	100%	100%	100%	0%
